ChEMBL document CHEMBL3244392, “Synthesis and antiinflammatory activity of some 2-aryl-6-benzoxazoleacetic acid derivatives” (J Med Chem, 1977)

Columns and labels:
Rattus norvegicus [1] = test: Antiinflammatory activity in rat assessed as inhibition of carrageenan-induced paw edema at 50 mg/kg, po administered as two doses 3 and 0.5 hr prior to challenge measured 2.5 hrs post challenge; type: functional
[2] = Toxicity in po dosed rat; type: organism-based; conditions: in vivo
Rattus norvegicus [3] = test: Antiinflammatory activity in rat assessed as inhibition of carrageenan-induced paw edema at 100 mg/kg, po administered as two doses 3 and 0.5 hr prior to challenge measured 2.5 hrs post challenge; type: functional
Rattus norvegicus [4] = test: Antiinflammatory activity in adrenalectomized rat assessed as inhibition of carrageenan-induced paw edema at 100 mg/kg, po administered as two doses 3 and 0.5 hr prior to challenge measured 2.5 hrs post challenge; type: functional
Rattus norvegicus [5] = test: Antiinflammatory activity in adrenalectomized rat assessed as inhibition of carrageenan-induced paw edema at 25 mg/kg, po administered as two doses 3 and 0.5 hr prior to challenge measured 2.5 hrs post challenge; type: functional
Rattus norvegicus [6] = test: Antiinflammatory activity in rat assessed as inhibition of carrageenan-induced paw edema at 25 mg/kg, po administered as two doses 3 and 0.5 hr prior to challenge measured 2.5 hrs post challenge; type: functional
Rattus norvegicus [7] = test: Antiinflammatory activity in adrenalectomized rat assessed as inhibition of carrageenan-induced paw edema administered orally 1 hr prior to challenge measured 5 hrs post challenge; type: functional; conditions: po
Rattus norvegicus [8] = test: Antiinflammatory activity in adrenalectomized rat assessed as inhibition of carrageenan-induced paw edema at 50 mg/kg, po administered as two doses 3 and 0.5 hr prior to challenge measured 2.5 hrs post challenge; type: functional
Rattus norvegicus [9] = test: Antiinflammatory activity in adrenalectomized rat assessed as inhibition of carrageenan-induced paw edema administered orally 1 hr prior to challenge measured 2.5 hrs post challenge; type: functional; conditions: po

In the case of CC(C(=O)O)c1ccc2nc(-c3ccc(F)cc3)oc2c1 (stereo not drawn), the inhibition in vivo at 50 mg/kg (Rattus norvegicus [1]) is reported as 48% and the LD50 [2] is reported as 1200 mg/kg.
Cc1ccc2nc(-c3ccccc3)oc2c1 showed an inhibition in vivo at 50 mg/kg (Rattus norvegicus [1]) of 10% and an LD50 [2] of under 1600 mg/kg.
Work on O=C(O)Cc1ccc2nc(-c3ccccc3)oc2c1 yielded an inhibition in vivo at 100 mg/kg (Rattus norvegicus [3]) of 60%, an inhibition in vivo at 100 mg/kg (Rattus norvegicus [4]) of 50% and an LD50 [2] of 1200 mg/kg.
Molecule Cl.NCCc1ccc2nc(-c3ccccc3)oc2c1 has an inhibition in vivo at 25 mg/kg (Rattus norvegicus [5]) of 0%, an LD50 [2] of 300 mg/kg and an inhibition in vivo at 25 mg/kg (Rattus norvegicus [6]) of 59%.
CCOC(=O)Cc1ccc2nc(-c3ccccc3)oc2c1 showed an inhibition in vivo at 100 mg/kg (Rattus norvegicus [3]) of 61% and an LD50 [2] of 1200 mg/kg.
OCCc1ccc2nc(-c3ccccc3)oc2c1 gave an inhibition in vivo at 100 mg/kg (Rattus norvegicus [3]) of 47% and an LD50 [2] of over 1600 mg/kg.
In the case of CC(CO)c1ccc2nc(-c3ccccc3)oc2c1 (stereo not drawn), the inhibition in vivo at 100 mg/kg (Rattus norvegicus [3]) is reported as 61% and the LD50 [2] is reported as 800 mg/kg.
Work on CC(C(=O)O)c1ccc2nc(-c3ccccc3)oc2c1 (stereo not drawn) yielded an inhibition in vivo at 50 mg/kg (Rattus norvegicus [1]) of 60% and an LD50 [2] of 600 mg/kg.
Work on CC(C(=O)O)c1ccc2nc(-c3ccccc3Cl)oc2c1 (stereo not drawn) yielded an ED30 (Rattus norvegicus [7]) of 23 mg/kg, an inhibition in vivo at 50 mg/kg (Rattus norvegicus [8]) of 58% and an ED30 (Rattus norvegicus [9]) of 1.98 mg/kg. The inhibition in vivo at 50 mg/kg (Rattus norvegicus [1]) was 41% and the LD50 [2] was 1200 mg/kg.
CC(C(=O)O)c1ccc2nc(-c3ccc(Cl)cc3)oc2c1 (stereo not drawn) gave an ED30 (Rattus norvegicus [7]) of 11 mg/kg, an ED30 (Rattus norvegicus [9]) of 2.4 mg/kg and an inhibition in vivo at 50 mg/kg (Rattus norvegicus [1]) of 28%. It also gave an LD50 [2] of 1200 mg/kg.
Molecule CC(C(=O)O)c1ccc2nc(-c3ccc(Cl)cc3Cl)oc2c1 (stereo not drawn) has an inhibition in vivo at 25 mg/kg (Rattus norvegicus [5]) of 56%, an LD50 [2] of 300 mg/kg and an inhibition in vivo at 25 mg/kg (Rattus norvegicus [6]) of 49%.
With Cc1ccc(-c2nc3ccc(C(C)C(=O)O)cc3o2)cc1 (stereo not drawn) the inhibition in vivo at 50 mg/kg (Rattus norvegicus [1]) was 43% and the LD50 [2] was 1200 mg/kg.
With CC(CN)c1ccc2nc(-c3ccccc3)oc2c1.O=C(O)CCC(=O)O (stereo not drawn) the LD50 [2] was 300 mg/kg and the inhibition in vivo at 25 mg/kg (Rattus norvegicus [6]) was 0%.
CC(C(=O)O)c1ccc2oc(-c3ccc(Cl)cc3)nc2c1 (stereo not drawn) [BENOXAPROFEN] gave an ED30 (Rattus norvegicus [7]) of 10.6 mg/kg, an ED30 (Rattus norvegicus [9]) of 13.4 mg/kg and an inhibition in vivo at 50 mg/kg (Rattus norvegicus [1]) of 78%. The LD50 [2] was 800 mg/kg.
Molecule C[C@]12CCC(=O)C=C1CC[C@@H]1[C@@H]2[C@@H](O)C[C@@]2(C)[C@H]1CC[C@]2(O)C(=O)CO [HYDROCORTISONE] has an inhibition in vivo at 50 mg/kg (Rattus norvegicus [1]) of 42%.
Molecule CCCCC1C(=O)N(c2ccccc2)N(c2ccccc2)C1=O [PHENYLBUTAZONE] has an ED30 (Rattus norvegicus [7]) of 52.6 mg/kg, an ED30 (Rattus norvegicus [9]) of 23.8 mg/kg and an inhibition in vivo at 50 mg/kg (Rattus norvegicus [1]) of 39%. For the same molecule, the inhibition in vivo at 100 mg/kg (Rattus norvegicus [4]) was 60%.
